Patent US6472391B2, “Nitrogen-containing heterocyclic compounds” (Millennium Pharmaceuticals, Inc., priority 1996, dated 2002)

| Structure (SMILES) | melting point [°C] |
| --- | --- |
| COc1cc2ncnc(N3CCN(C(=S)Nc4cccc(NC(C)=O)c4)CC3)c2cc1OC [Compound 226, N-(3-Acetamidophenyl)-4-(6,7-dimethoxy-4-quinazolinyl)-1-piperazinethiocarboxamide] | 207 to 208 |
| COc1cc2ncnc(N3CCN(C(=O)Nc4ccc(CN(C)C)cc4)CC3)c2cc1OC [Compound 227, 4-(6,7-Dimethoxy-4-quinazolinyl)-N-[4-(N,N-dimethylaminomethyl)phenyl]-1-piperazinecarboxamide] | 213 to 215 |
| COc1cc2ncnc(N3CCN(C(=S)NC(=O)c4ccc([N+](=O)[O-])cc4)CC3)c2cc1OC [Compound 232, 4-(6,7-Dimethoxy-4-quinazolinyl)-N-(4-nitrobenzoyl)-1-piperazinethiocarboxamide] | 103 to 105 |
| COc1cc2ncnc(N3CCN(C(=O)Nc4ccc(Cl)cc4[N+](=O)[O-])CC3)c2cc1OC [Compound 234, N-(4-Chloro-2-nitrophenyl)-4-(6,7-dimethoxy-4-quinazolinyl)-1-piperazinecarboxamide] | 205 to 206 |
| COc1cc2ncnc(N3CCN(C(=O)Nc4cc(C)c(C)cc4[N+](=O)[O-])CC3)c2cc1OC [Compound 237, 4-(6,7-Dimethoxy-4-quinazolinyl)-N-(4,5-dimethyl-2-nitrophenyl)-1-piperazinecarboxamide] | 213 to 215 |
| COc1cc2ncnc(N3CCN(C(=S)Nc4cccc(C#N)c4)CC3)c2cc1OC [Compound 238, N-(3-Cyanophenyl)-4-(6,7-dimethoxy-4-quinazolinyl)-1-piperazinethiocarboxamide] | 169 to 170 |
| COc1cc2ncnc(N3CCN(C(=S)Nc4ccc(C(C)=O)cc4)CC3)c2cc1OC [Compound 242, N-(4-Acetylphenyl)-4-(6,7-dimethoxy-4-quinazolinyl)-1-piperazinethiocarboxamide] | 256 to 257 |
| COc1cc2ncnc(N3CCN(C(=O)Nc4ccc(C(=O)C(F)(F)F)cc4)CC3)c2cc1OC [Compound 243, 4-(6,7-Dimethoxy-4-quinazolinyl)-N-(4-trifluoroacetylphenyl)-1-piperazinecarboxamide] | 144 to 146 |
| CCCC(=O)c1ccc(NC(=S)N2CCN(c3ncnc4cc(OC)c(OC)cc34)CC2)cc1 [Compound 244, N-(4-Butyrylphenyl)-4-(6,7-dimethoxy-4-quinazolinyl)-1-piperazinethiocarboxamide] | 218 to 219 |
| COc1cc2ncnc(N3CCN(C(=O)Nc4ccc(C(=O)c5ccccc5)cc4)CC3)c2cc1OC [Compound 245, N-(4-Benzoylphenyl)-4-(6,7-dimethoxy-4-quinazolinyl)-1-piperazinecarboxamide] | 240 to 241 |
| CCOC(=O)c1cccc(NC(=O)N2CCN(c3ncnc4cc(OC)c(OC)cc34)CC2)c1 [Compound 248, 4-(6,7-Dimethoxy-4-quinazolinyl)-N-(3-ethoxycarbonylphenyl)-1-piperazinecarboxamide] | 187 to 188 |
| COC(=O)c1ccc(NC(=S)N2CCN(c3ncnc4cc(OC)c(OC)cc34)CC2)cc1 [Compound 249, 4-(6,7-Dimethoxy-4-quinazolinyl)-N-(4-methoxycarbonylphenyl)-1-piperazinethiocarboxamide] | 208 to 209 |
| COc1cc2ncnc(N3CCN(C(=O)Nc4ccc(S(C)(=O)=O)cc4)CC3)c2cc1OC [Compound 251, 4-(6,7-Dimethoxy-4-quinazolinyl)-N-(4-mesylphenyl)-1-piperazinecarboxamide] | 266 to 269 |
| COc1cc2ncnc(N3CCN(C(=O)NCc4ccco4)CC3)c2cc1OC [Compound 256, 4-(6,7-Dimethoxy-4-quinazolinyl)-N-furfuryl-1-piperazinecarboxamide] | 168 to 170 |
| COc1cc2ncnc(N3CCN(C(=O)Nc4ccsc4)CC3)c2cc1OC [Compound 257, 4-(6,7-Dimethoxy-4-quinazolinyl)-N-(3-thienyl)-1-piperazinecarboxamide] | 239 to 241 |
| COc1cc2ncnc(N3CCN(C(=O)NCc4ccsc4)CC3)c2cc1OC [Compound 258, 4-(6,7-Dimethoxy-4-quinazolinyl)-N-(3-thienylmethyl)-1-piperazinecarboxamide] | 178 to 179 |
| COc1cc2ncnc(N3CCN(C(=O)NCc4cccs4)CC3)c2cc1OC [Compound 259, 4-(6,7-Dimethoxy-4-quinazolinyl)-N-(2-thienylmethyl)-1-piperazinecarboxamide] | 168 to 170 |
| COC(=O)c1sccc1NC(=S)N1CCN(c2ncnc3cc(OC)c(OC)cc23)CC1 [Compound 260, 4-(6,7-Dimethoxy-4-quinazolinyl)-N-(2-methoxycarbonyl-3-thienyl)-1-piperazinethiocarboxamide] | 226 to 228 |
| COC(=O)c1scc(C)c1NC(=S)N1CCN(c2ncnc3cc(OC)c(OC)cc23)CC1 [Compound 261, 4-(6,7-Dimethoxy-4-quinazolinyl)-N-(2-methoxycarbonyl-4-methyl-3-thienyl)-1-piperazinethiocarboxamide] | 113 to 116 |
| COc1cc2ncnc(N3CCN(C(=S)Nc4ccccn4)CC3)c2cc1OC [Compound 262, 4-(6,7-Dimethoxy-4-quinazolinyl)-N-(2-pyridyl)-1-piperazinethiocarboxamide] | 208 to 210 |
| COc1cc2ncnc(N3CCN(C(=O)Nc4cccnc4)CC3)c2cc1OC [Compound 265, 4-(6,7-Dimethoxy-4-quinazolinyl)-N-(3-pyridyl)-1-piperazinecarboxamide] | 208 to 209 |
| COc1cc2ncnc(N3CCN(C(=O)NCc4cccnc4)CC3)c2cc1OC [Compound 266, 4-(6,7-Dimethoxy-4-quinazolinyl)-N-(3-picolyl)-1-piperazinecarboxamide] | 188 to 189 |
| COc1cc2ncnc(N3CCN(C(=O)Nc4ccncc4)CC3)c2cc1OC [Compound 267, 4-(6,7-Dimethoxy-4-quinazolinyl)-N-(4-pyridyl)-1-piperazinecarboxamide] | 141 to 143 |
| COc1cc2ncnc(N3CCN(C(=S)Nc4ccncc4)CC3)c2cc1OC [Compound 268, 4-(6,7-Dimethoxy-4-quinazolinyl)-N-(4-pyridyl)-1-piperazinethiocarboxamide] | 218 to 220 |
| COc1cc2ncnc(N3CCN(C(=S)NCc4ccncc4)CC3)c2cc1OC [Compound 270, 4-(6,7-Dimethoxy-4-quinazolinyl)-N-(4-picolyl)-1-piperazinethiocarboxamide] | 236 to 239 |
| COc1cc2ncnc(N3CCN(C(=O)Nc4ccc(C)nc4)CC3)c2cc1OC [Compound 271, 4-(6,7-Dimethoxy-4-quinazolinyl)-N-(2-methyl-5-pyridyl)-1-piperazinecarboxamide] | 240 to 241 |
| COc1cc2ncnc(N3CCN(C(=O)Nc4ccc(Cl)nc4)CC3)c2cc1OC [Compound 272, N-(2-Chloro-5-pyridyl)-4-(6,7-dimethoxy-4-quinazolinyl)-1-piperazinecarboxamide] | 238 to 240 |

More lines, now with the values ahead:

| melting point [°C] | Structure (SMILES) |
| --- | --- |
| 275 to 277 | COc1cc2ncnc(N3CCN(C(=O)Nc4ccc(C#N)nc4)CC3)c2cc1OC [Compound 273, N-(2-Cyano-5-pyridyl)-4-(6,7-dimethoxy-4-quinazolinyl)-1-piperazinecarboxamide] |
| 182 to 183 | COc1cc2ncnc(N3CCN(C(=S)NCc4ncc(C(F)(F)F)cc4Cl)CC3)c2cc1OC [Compound 276, N-(3-Chloro-5-trifluoromethyl-2-picolyl)-4-(6,7-dimethoxy-4-quinazolinyl)-1-piperazinethiocarboxamide] |
| 283 to 285 | COc1cc2ncnc(N3CCN(C(=S)Nc4cc(O)nc(O)n4)CC3)c2cc1OC [Compound 277, N-(2,6-Dihydroxy-4-pyrimidinyl)-4-(6,7-dimethoxy-4-quinazolinyl)-1-piperazinethiocarboxamide] |
| 202 to 204 | COc1cc2ncnc(N3CCN(C(=O)NCc4cnc(C)cn4)CC3)c2cc1OC [Compound 278, 4-(6,7-Dimethoxy-4-quinazolinyl)-N-(5-methyl-2-pyrazinylmethyl)-1-piperazinecarboxamide] |
| 147 to 148 | COc1cc2ncnc(N3CCN(C(=S)NC4CCOC4=O)CC3)c2cc1OC (stereo not shown) [Compound 279, 4-(6,7-Dimethoxy-4-quinazolinyl)-N-(2,3,4,5-tetrahydro-2-oxo-3-furyl)-1-piperazinethiocarboxamide] |
| 224 to 226 | COc1cc2ncnc(N3CCN(C(=O)Nc4ccc(-n5cccc5)cc4)CC3)c2cc1OC [Compound 280, 4-(6,7-Dimethoxy-4-quinazolinyl)-N-[4-(1-pyrrolyl)phenyl]-1-piperazinecarboxamide] |
| 198 to 200 | COc1cc2ncnc(N3CCN(C(=S)Nc4ccc(Cc5ccncc5)cc4)CC3)c2cc1OC [Compound 282, 4-(6,7-Dimethoxy-4-quinazolinyl)-N-[4-(4-picolyl)phenyl]-1-piperazinethiocarboxamide] |
| 68 to 70 | S=C(NCc1ccccc1)N1CCN(c2ncnc3ccccc23)CC1 [Compound 285, N-Benzyl-4-(4-quinazolinyl)-1-piperazinethiocarboxamide] |
| 193 to 194 | S=C(NCc1cccnc1)N1CCN(c2ncnc3ccccc23)CC1 [Compound 286, N-(3-Picolyl)-4-(4-quinazolinyl)-1-piperazinethiocarboxamide] |
| 187 to 188 | Cc1cccc2ncnc(N3CCN(C(=O)Nc4ccc(Oc5ccccc5)cc4)CC3)c12 [Compound 287, 4-(5-Methyl-4-quinazolinyl)-N-(4-phenoxyphenyl)-1-piperazinecarboxamide] |
| 165 to 167 | Cc1cccc2ncnc(N3CCN(C(=S)NCc4ccccc4)CC3)c12 [Compound 288, N-Benzyl-4-(5-methyl-4-quinazolinyl)-1-piperazinethiocarboxamide] |
| 126 to 129 | Cc1ccc2ncnc(N3CCN(C(=O)Nc4ccc([N+](=O)[O-])cc4)CC3)c2c1 [Compound 293, 4-(6-Methyl-4-quinazolinyl)-N-(4-nitrophenyl)-1-piperazinecarboxamide] |
| 128 to 129 | Cc1ccc2ncnc(N3CCN(C(=S)NCc4cccnc4)CC3)c2c1 [Compound 295, 4-(6-Methyl-4-quinazolinyl)-N-(3-picolyl)-1-piperazinethiocarboxamide] |
